Columns and labels:
IRAK4 = target: T1, IRAK4 (Homo sapiens, UniProt Q9NWZ3); assay: IRAK4 MSD degradation in OCI-LY10; format: cell-based; settings: OCI-LY10 cells, 24 hrs, Meso Scale Discovery
T1 construct: endogenous in cells; host or cells: OCI-LY10
T1 sequence (Q9NWZ3 1-460): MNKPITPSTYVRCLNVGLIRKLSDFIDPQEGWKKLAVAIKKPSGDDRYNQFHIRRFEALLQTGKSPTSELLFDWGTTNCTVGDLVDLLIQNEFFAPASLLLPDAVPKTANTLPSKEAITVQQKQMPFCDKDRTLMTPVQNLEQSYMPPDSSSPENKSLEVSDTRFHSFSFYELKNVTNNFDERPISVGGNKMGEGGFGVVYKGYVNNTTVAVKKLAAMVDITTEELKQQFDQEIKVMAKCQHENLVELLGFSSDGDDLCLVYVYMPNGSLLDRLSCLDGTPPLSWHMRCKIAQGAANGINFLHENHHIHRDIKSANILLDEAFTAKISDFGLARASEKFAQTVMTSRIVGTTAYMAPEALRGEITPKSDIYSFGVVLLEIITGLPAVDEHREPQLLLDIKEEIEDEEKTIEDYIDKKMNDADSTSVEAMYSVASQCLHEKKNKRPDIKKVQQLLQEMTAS
Outline: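 OCI-LY10 cells treated 4 to 24 hours at 37° C. with 8-dose 1:3 series, top 1 to 10 μM. IRAK4 in lysates quantified by MSD sandwich immunoassay (mouse capture, rabbit detection, SULFO-TAG anti-rabbit). DC50 from three-parameter logistic fit.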

[1] = Rodent pharmacokinetics (rat PK); format: in vivo; settings: po, dosed intravenously or orally by gavage, plasma, read-out: F % (bioavailability)
Outline: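 Rats were dosed IV or by oral gavage, with jugular blood taken predose and at 5 min (IV only), 15, 30 min and 1, 2, 4, 8, 24 h. Plasma was separated by centrifugation at 4 °C. Oral bioavailability (F %) is coded A (≥5%) or B (≤5%).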

Row | SMILES | DC50 (IRAK4) [nM] | bioavailability [1] [%]
1 | Cn1c(=O)n(C2CCC(=O)NC2=O)c2cccc([C@@H]3CCN(C[C@H]4CC[C@H](n5cc6cc(NC(=O)c7ccnc(C(F)(F)F)n7)ccc6n5)CC4)C[C@H]3F)c21 (stereo partly shown) [I-190] | > 200 | ≤ 5
2 | Cn1c(=O)n(C2CCC(=O)NC2=O)c2cccc(N3CCC(F)(CN4CCC(c5nc6cc(C(C)(C)O)c(NC(=O)c7cccc(C(F)(F)F)n7)cc6s5)CC4)CC3)c21 (stereo not shown) [I-191] | 10 to 100 | ≤ 5
3 | Cn1c(=O)n(C2CCC(=O)NC2=O)c2cccc([C@@H]3CCN(C[C@H]4CC[C@H](c5cn6cc(NC(=O)c7cncc(C(F)(F)F)n7)ccc6n5)CC4)C[C@H]3F)c21 (stereo partly shown) [I-193] | < 10 | ≤ 5
4 | Cn1c(=O)n(C2CCC(=O)NC2=O)c2cccc([C@@H]3CCN(C[C@H]4CC[C@H](c5cc6cc(NC(=O)c7cncc(C(F)(F)F)n7)ccn6n5)CC4)C[C@H]3F)c21 (stereo partly shown) [I-194] | < 10 | ≥ 5
5 | Cn1c(=O)n(C2CCC(=O)NC2=O)c2cccc([C@@H]3CCN(C[C@H]4CC[C@H](n5cc6cc(NC(=O)c7nccc(C(F)(F)F)n7)ccc6n5)CC4)C[C@H]3F)c21 (stereo partly shown) [I-195] | > 200 | ≤ 5
6 | Cn1c(=O)n(C2CCC(=O)NC2=O)c2cccc([C@@H]3CCN(C[C@H]4CC[C@H](n5cc6cc(NC(=O)c7cc(C(F)(F)F)ncn7)ccc6n5)CC4)C[C@H]3F)c21 (stereo partly shown) [I-196] | > 200 | ≤ 5
7 | Cn1c(=O)n(C2CCC(=O)NC2=O)c2cccc(N3CCC(F)(CN4CCC(c5nc6cc(C(C)(C)O)c(NC(=O)c7cccc(C(F)(F)F)n7)cc6o5)CC4)CC3)c21 (stereo not shown) [I-197] | > 200 | ≤ 5
8 | COc1cc2nn([C@H]3CC[C@H](CN4CC[C@@H](c5cccc6c5n(C)c(=O)n6C5CCC(=O)NC5=O)[C@H](F)C4)CC3)cc2cc1C(=O)Nc1cccc(C(F)(F)F)n1 (stereo partly shown) [I-200] | < 10 | ≤ 5
9 | Cn1c(=O)n(C2CCC(=O)NC2=O)c2cccc([C@@H]3CCN(C[C@H]4CC[C@H](n5cc6cc(C(=O)Nc7cccc(C(F)(F)F)n7)ccc6n5)CC4)C[C@H]3F)c21 (stereo partly shown) [I-201] | < 10 | ≤ 5
10 | Cn1c(=O)n(C2CCC(=O)NC2=O)c2cccc([C@@H]3CCN(C[C@H]4CC[C@H](n5cc6cc(NC(=O)c7cncc(C(F)(F)F)n7)c(Cl)cc6n5)CC4)C[C@H]3F)c21 (stereo partly shown) [I-210] | < 10 | ≤ 5
11 | Cn1c(=O)n(C2CCC(=O)NC2=O)c2cccc([C@@H]3CCN(C[C@H]4CC[C@H](n5cc6cc(NC(=O)c7cncc(C(F)(F)F)n7)c(C(F)F)cc6n5)CC4)C[C@H]3F)c21 (stereo partly shown) [I-214] | < 10 | ≤ 5
12 | COc1cc2nn([C@H]3CC[C@H](CN4CCC5(CCN(c6cccc7c6n(C)c(=O)n7C6CCC(=O)NC6=O)CC5)C(F)(F)C4)CC3)cc2cc1C(=O)Nc1cncc(C#N)c1 (stereo partly shown) [I-228] | < 10 | ≤ 5
13 | COc1cc2nn([C@H]3CC[C@H](CN4CCC5(CN(c6cccc7c6n(C)c(=O)n7C6CCC(=O)NC6=O)C5)C(F)(F)C4)CC3)cc2cc1NC(=O)c1cncc(C)c1 (stereo partly shown) [I-243] | < 10 | ≤ 5
14 | Cn1c(=O)n(C2CCC(=O)NC2=O)c2cccc([C@@H]3CCN(C[C@H]4CC[C@H](n5cc6cc(NC(=O)c7cccc(C(F)(F)F)c7)ncc6n5)CC4)C[C@H]3F)c21 (stereo partly shown) [I-244] | < 10 | ≤ 5
15 | Cn1c(=O)n(C2CCC(=O)NC2=O)c2cccc([C@@H]3CCN(C[C@H]4CC[C@H](n5cc6cc(NC(=O)c7cccc(C(F)(F)F)c7)ccc6n5)CC4)C[C@H]3F)c21 (stereo partly shown) [I-245] | < 10 | ≤ 5
16 | COc1cc2nn([C@H]3CC[C@H](CN4CC[C@@H](c5cccc6c5n(C)c(=O)n6C5CCC(=O)NC5=O)[C@H](F)C4)CC3)cc2cc1NC(=O)c1cccc(C(F)(F)F)c1 (stereo partly shown) [I-246] | < 10 | ≤ 5
17 | COc1cc2nn([C@H]3CC[C@H](CN4CCC5(CN(c6cccc7c6n(C)c(=O)n7C6CCC(=O)NC6=O)C5)C(F)(F)C4)CC3)cc2cc1NC(=O)c1cncc(C#N)c1 (stereo partly shown) [I-247] | < 10 | ≤ 5
18 | COc1cc2nn([C@H]3CC[C@H](CN4CCC5(CN(c6cccc7c6n(C)c(=O)n7C6CCC(=O)NC6=O)C5)C(F)(F)C4)CC3)cc2cc1NC(=O)c1cncc(F)c1 (stereo partly shown) [I-248] | < 10 | ≤ 5
19 | Cn1c(=O)n(C2CCC(=O)NC2=O)c2cccc([C@@H]3CCN(C[C@H]4CC[C@H](n5cc6cc(NC(=O)c7cccc(C#N)c7)ccc6n5)CC4)C[C@H]3F)c21 (stereo partly shown) [I-249] | < 10 | ≤ 5

Row | SMILES | DC50 (IRAK4) [nM] | bioavailability [1] [%]
20 | COc1cc2nn([C@H]3CC[C@H](CN4CC[C@@H](c5cccc6c5n(C)c(=O)n6C5CCC(=O)NC5=O)[C@H](F)C4)CC3)cc2cc1NC(=O)c1cccc(C#N)c1 (stereo partly shown) [I-250] | < 10 | ≤ 5
21 | COc1cc2nn([C@H]3CC[C@H](CN4CC[C@@H](c5cccc6c5n(C)c(=O)n6C5CCC(=O)NC5=O)[C@H](F)C4)CC3)cc2cc1NC(=O)c1cncc(C(F)(F)F)c1 (stereo partly shown) [I-252] | < 10 | ≤ 5
22 | Cn1c(=O)n(C2CCC(=O)NC2=O)c2cccc(N3CC4(CCN(C[C@H]5CC[C@H](n6cc7cc(NC(=O)c8cccc(C(F)(F)F)c8)ncc7n6)CC5)CC4(F)F)C3)c21 (stereo partly shown) [I-253] | < 10 | ≤ 5
23 | Cn1c(=O)n(C2CCC(=O)NC2=O)c2cccc(N3CC4(CCN(C[C@H]5CC[C@H](n6cc7cc(NC(=O)c8cccc(C(F)(F)F)c8)ccc7n6)CC5)CC4(F)F)C3)c21 (stereo partly shown) [I-254] | < 10 | ≤ 5
24 | COc1cc2nn([C@H]3CC[C@H](CN4CCC5(CN(c6cccc7c6n(C)c(=O)n7C6CCC(=O)NC6=O)C5)C(F)(F)C4)CC3)cc2cc1NC(=O)c1cccc(C(F)(F)F)c1 (stereo partly shown) [I-255] | < 10 | ≤ 5
25 | Cn1c(=O)n(C2CCC(=O)NC2=O)c2cccc(N3CC(OC[C@H]4CC[C@H](n5cc(NC(=O)c6cnn7ccc(N8C[C@H]9C[C@@H]8CO9)nc67)c(C(F)F)n5)CC4)C3)c21 (stereo partly shown) [I-256] | > 200 | ≤ 5
26 | COc1cc2nn([C@H]3CC[C@H](CN4CCC5(CCN(c6cccc7c6n(C)c(=O)n7C6CCC(=O)NC6=O)CC5)C(F)(F)C4)CC3)cc2cc1NC(=O)c1cncc(C)c1 (stereo partly shown) [I-257] | < 10 | ≤ 5
27 | COc1cc2nn([C@H]3CC[C@H](CN4CCC5(CCN(c6cccc7c6n(C)c(=O)n7C6CCC(=O)NC6=O)CC5)C(F)(F)C4)CC3)cc2cc1NC(=O)c1cncc(C#N)c1 (stereo partly shown) [I-259] | < 10 | ≤ 5
28 | COc1cc2nn([C@H]3CC[C@H](CN4CCC5(CN(c6c(F)ccc7c6n(C)c(=O)n7C6CCC(=O)NC6=O)C5)C(F)(F)C4)CC3)cc2cc1NC(=O)c1cncc(C#N)c1 (stereo partly shown) [I-260] | < 10 | ≤ 5
29 | Cn1c(=O)n(C2CCC(=O)NC2=O)c2cccc([C@@H]3CCN(C[C@H]4CC[C@H](c5cn6cc(NC(=O)c7cccc(C(F)(F)F)n7)ccc6n5)CC4)C[C@H]3F)c21 (stereo partly shown) [I-262] | < 10 | ≤ 5
30 | Cn1c(=O)n(C2CCC(=O)NC2=O)c2cccc([C@@H]3CCN(C[C@H]4CC[C@H](c5cn6cc(NC(=O)c7cccc(C(F)(F)F)n7)c(C(C)(C)O)cc6n5)CC4)C[C@H]3F)c21 (stereo partly shown) [I-268] | < 10 | ≤ 5
31 | Cn1c(=O)n(C2CCC(=O)NC2=O)c2cccc(N3CC(COC[C@H]4CC[C@H](n5cc6cc(NC(=O)c7cccc(C(F)(F)F)c7)ncc6n5)CC4)C3)c21 (stereo partly shown) [I-269] | > 200 | ≤ 5
32 | COc1cc2nn([C@H]3CC[C@H](COCC4CN(c5cccc6c5n(C)c(=O)n6C5CCC(=O)NC5=O)C4)CC3)cc2cc1NC(=O)c1cncc(C#N)c1 (stereo partly shown) [I-270] | 10 to 100 | ≤ 5
33 | COc1cc2nn([C@H]3CC[C@H](CN4CC[C@@H](c5cccc6c5n(C)c(=O)n6C5CCC(=O)NC5=O)[C@H](F)C4)CC3)cc2cc1NC(=O)c1cncc(C(F)F)c1 (stereo partly shown) [I-271] | < 10 | ≤ 5
34 | Cc1cc2nn([C@H]3CC[C@H](CN4CC[C@@H](c5cccc6c5n(C)c(=O)n6C5CCC(=O)NC5=O)[C@H](F)C4)CC3)cc2cc1NC(=O)c1cncc(C#N)c1 (stereo partly shown) [I-272] | > 200 | ≤ 5
35 | Cn1c(=O)n(C2CCC(=O)NC2=O)c2cccc([C@@H]3CCN(C[C@H]4CC[C@H](c5cn6cc(NC(=O)c7cccc(C(F)(F)F)c7)ccc6n5)CC4)C[C@H]3F)c21 (stereo partly shown) [I-274] | < 10 | ≤ 5
36 | CC(C)Oc1cc2nn([C@H]3CC[C@H](CN4CC[C@@H](c5cccc6c5n(C)c(=O)n6C5CCC(=O)NC5=O)[C@H](F)C4)CC3)cc2cc1NC(=O)c1cncc(C#N)c1 (stereo partly shown) [I-275] | < 10 | ≤ 5
37 | Cn1c(=O)n(C2CCC(=O)NC2=O)c2cccc([C@@H]3CCN(C[C@H]4CC[C@H](c5cn6cc(NC(=O)c7cccc(C(F)(F)F)c7)c(C(C)(C)O)cc6n5)CC4)C[C@H]3F)c21 (stereo partly shown) [I-276] | < 10 | ≤ 5
38 | COc1cc2nc([C@H]3CC[C@H](CN4CC[C@@H](c5cccc6c5n(C)c(=O)n6C5CCC(=O)NC5=O)[C@H](F)C4)CC3)cn2cc1NC(=O)c1cccc(C(F)(F)F)c1 (stereo partly shown) [I-278] | < 10 | ≤ 5

From patent US20250059164A1, “IRAK DEGRADERS AND USES THEREOF” (Kymera Therapeutics, Inc., priority 2023, published 2025)
